Results taken from PubChem BioAssay AID2060499 (Molecular Pharmacology Branch, DTP, NCI, 2025).

Test system: 777334-354-R2-J4-PDC tumor spheroids with HUVEC/MSC, viability
Assay: Anticancer human tumor 777334-354-R2-J4-PDC patient-derived pancreatic adenocarcinoma cell line growth inhibition [GQUAD]
Conditions: for IC50: curve of first compound; for viability, T/C: stronger effect = lower value
From the text: DNA G-quadruplex Stabilizer Agents in Combinations in Complex Spheroids
A high-throughput screen of multi-cell type tumor spheroids was designed to identify active combinations of DNA G-quadruplex stabilizer agents and targeted small molecules. Complex spheroids include a stromal component modeled by human endothelial cells (HUVEC) and fibroblasts modeled by human mesenchymal stem cells (MSCs). The concentration ranges selected for each drug and investigational agent were based upon clinically achievable concentrations if the clinical Cmax of the agent was known.
Compounds. The drugs and investigational agents: pidnarulex (CX-5461; NSC782164), APTO-253 (NSC789042), BRACO-19 (NSC847499), peposertib (NSC802822), ceralasertib (NSC780249), elimusertib (NSC800525), camonsertib (NSC841442), AZD-1390 (NSC803789), olaparib (NSC753686), talazoparib (NSC767125), ART-558 (NSC835418), sotorasib (NSC818433), MRTX-1133 (NSC836407), SN-38 (NSC673596), topotecan (NSC609699), etoposide (NSC141540), doxorubicin (NSC123127), gemcitabine (NSC613327), 5-fluorouracil (NSC19893), paclitaxel (NSC125973), vemurafenib (NSC761431), panobinostat (NSC761190), R-306465 (JNJ-16241199; NSC773264), adavosertib (NSC754352), TP-3654 (NSC805149), carboplatin (NSC241240), KSQ-4279 (NSC840948), and staurosporine (NSC755774) were obtained from the National Cancer Institute (NCI) Developmental Therapeutics Program Chemical Repository (34). The FDA-approved anticancer drug set is available from the NCI Developmental Therapeutics Program. […] The stock solutions were prepared in dimethyl sulfoxide (DMSO, Sigma-Aldrich, St. Louis, MO, cat. D2650) at 800-fold the tested concentration and stored at -70 degrees C prior to their use. All drugs and investigational agents were tested over a range starting from a high concentration at or near the clinical Cmax and decreasing in half-log increments. If the clinical Cmax for an agent had not been determined, the highest concentration tested was 10 microM.
2.3 Cell Culture. All cells were maintained in an incubator at 37 degrees C and 5% CO2 with 95% humidity. The PDC lines were cultured according to standard operating procedures established by the NCI PDMR. All PDCs were thawed and cultured in Matrigel-coated flasks prepared with a working solution of 1X Ham's F-12 nutrient mix, without supplementation (Invitrogen, cat. 11765054), 100 U/mL penicillin-streptomycin (Invitrogen, cat. 15140122), and 2.5% Matrigel (Corning Inc., cat. 354248) for the first three passages. The 857933-349-R-J2-PDC line was cultured in 6C/Colon 1B media, which includes advanced DMEM/F-12 (Thermo Fisher Scientific, cat. 12634028), 10 mM HEPES (Thermo Fisher Scientific, cat. 15630080), 1X GlutaMAX supplement (Thermo Fisher Scientific, cat. 35050061), 0.1 mg/mL primocin (InvivoGen, cat. ant-pm-2), 10% defined fetal bovine serum, heat inactivated (HyClone Laboratories Inc., cat. SH30070.03HI), 50% L-WRN conditioned media (ATCC, cat. CRL-3276), 1.25 mM N-Acetyl-L-cysteine (Sigma-Aldrich, cat. A9165), 10 mM nicotinamide (Sigma-Aldrich, cat. N0636), 1X B-27 supplement (Thermo Fisher Scientific, cat. 17504044), 1X N-2 supplement (Thermo Fisher Scientific, cat. 17502048), 10 microM Y-27632 dihydrochloride (Tocris Bioscience, cat. 1254), and 50 ng/mL human EGF recombinant protein (Thermo Fisher Scientific, cat. PHG0311). The 485176-168-R4-J1-PDC line was cultured in Panc media, which includes all 6C/Colon 1B media components plus 100 ng/mL human FGF-10 (Thermo Fisher Scientific, cat. 100-26), 500 nM SB-431542 (Selleckchem, cat. S1067), and gastrin (Tocris, cat. 3006).
[…]

[1] = second compound 0.0316 µM, first compound 0.0316 µM
[2] = second compound 0.0316 µM, first compound 0.1 µM
[3] = second compound 0.0316 µM, first compound 0.316 µM
[4] = second compound 0.0316 µM, first compound 1 µM
[5] = second compound 0.0316 µM, first compound 3.16 µM
[6] = second compound 0.0316 µM, first compound 10 µM
[7] = second compound 0.1 µM, first compound 0.0316 µM
[8] = second compound 0.1 µM, first compound 0.1 µM
[9] = second compound 0.1 µM, first compound 0.316 µM
[10] = second compound 0.1 µM, first compound 1 µM
[11] = second compound 0.1 µM, first compound 3.16 µM
[12] = second compound 0.1 µM, first compound 10 µM
[13] = second compound 0.316 µM, first compound 0.0316 µM
[14] = second compound 0.316 µM, first compound 0.1 µM
[15] = second compound 0.316 µM, first compound 0.316 µM
[16] = second compound 0.316 µM, first compound 1 µM
[17] = second compound 0.316 µM, first compound 3.16 µM
[18] = second compound 0.316 µM, first compound 10 µM
[19] = second compound 1 µM, first compound 0.0316 µM
[20] = second compound 1 µM, first compound 0.1 µM
[21] = second compound 1 µM, first compound 0.316 µM
[22] = second compound 1 µM, first compound 1 µM
[23] = second compound 1 µM, first compound 3.16 µM
[24] = second compound 1 µM, first compound 10 µM
[25] = second compound 3.16 µM, first compound 0.0316 µM
[26] = second compound 3.16 µM, first compound 0.1 µM
[27] = second compound 3.16 µM, first compound 0.316 µM
[28] = second compound 3.16 µM, first compound 1 µM
[29] = second compound 3.16 µM, first compound 3.16 µM
[30] = second compound 3.16 µM, first compound 10 µM
[31] = second compound 10 µM, first compound 0.0316 µM
[32] = second compound 10 µM, first compound 0.1 µM
[33] = second compound 10 µM, first compound 0.316 µM
[34] = second compound 10 µM, first compound 1 µM
[35] = second compound 10 µM, first compound 3.16 µM
[36] = second compound 10 µM, first compound 10 µM
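Note: spheroids exposed to compounds for 7 days before readout.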

CCCS(=O)(=O)Nc1ccc(F)c(C(=O)c2c[nH]c3ncc(-c4ccc(Cl)cc4)cc23)c1F + Cc1[nH]c2ccc(F)cc2c1-c1nc2c3cccnc3c3ncccc3c2[nH]1
IC50 (second compound 0.0316 µM): 7750 nM
IC50 (second compound 0.1 µM): 8350 nM
IC50 (second compound 0.316 µM): 7780 nM
IC50 (second compound 1 µM): 7020 nM
IC50 (second compound 3.16 µM): < 31.6 nM
IC50 (second compound 10 µM): < 31.6 nM
viability, T/C [1]: 108%
viability, T/C [2]: 108%
viability, T/C [3]: 114%
viability, T/C [4]: 111%
viability, T/C [5]: 124%
viability, T/C [6]: 32%
viability, T/C [7]: 111%
viability, T/C [8]: 104%
viability, T/C [9]: 109%
viability, T/C [10]: 122%
viability, T/C [11]: 130%
viability, T/C [12]: 38%
viability, T/C [13]: 94.7%
viability, T/C [14]: 102%
viability, T/C [15]: 96.2%
viability, T/C [16]: 126%
viability, T/C [17]: 117%
viability, T/C [18]: 33.9%
viability, T/C [19]: 79.8%
viability, T/C [20]: 99.4%
viability, T/C [21]: 92.4%
viability, T/C [22]: 109%
viability, T/C [23]: 111%
viability, T/C [24]: 28.5%
viability, T/C [25]: 50.2%
viability, T/C [26]: 46.1%
viability, T/C [27]: 33.2%
viability, T/C [28]: 30.6%
viability, T/C [29]: 38.5%
viability, T/C [30]: 13.8%
viability, T/C [31]: 44.3%
viability, T/C [32]: 31.9%
viability, T/C [33]: 43.8%
viability, T/C [34]: 28.8%
viability, T/C [35]: 28.4%
viability, T/C [36]: 15.8%

O=C(NO)c1cnc(N2CCN(S(=O)(=O)c3ccc4ccccc4c3)CC2)nc1 + Cc1[nH]c2ccc(F)cc2c1-c1nc2c3cccnc3c3ncccc3c2[nH]1
IC50 (second compound 0.0316 µM): 1440 nM
IC50 (second compound 0.1 µM): 1390 nM
IC50 (second compound 0.316 µM): 1520 nM
IC50 (second compound 1 µM): 1580 nM
IC50 (second compound 3.16 µM): 1050 nM
IC50 (second compound 10 µM): < 31.6 nM
viability, T/C [1]: 104%
viability, T/C [2]: 91.6%
viability, T/C [3]: 87.3%
viability, T/C [4]: 68.3%
viability, T/C [5]: 12.7%
viability, T/C [6]: 2.55%
viability, T/C [7]: 92.7%
viability, T/C [8]: 101%
viability, T/C [9]: 91.6%
viability, T/C [10]: 64.6%
viability, T/C [11]: 13.6%
viability, T/C [12]: 0.23%
viability, T/C [13]: 99.2%
viability, T/C [14]: 92.9%
viability, T/C [15]: 86.2%
viability, T/C [16]: 67.1%
viability, T/C [17]: 22%
viability, T/C [18]: 2.6%
viability, T/C [19]: 88.4%
viability, T/C [20]: 84.6%
viability, T/C [21]: 71.8%
viability, T/C [22]: 70.1%
viability, T/C [23]: 22.5%
viability, T/C [24]: 2.98%
viability, T/C [25]: 55.7%
viability, T/C [26]: 41.7%
viability, T/C [27]: 67%
viability, T/C [28]: 50.5%
viability, T/C [29]: 17.5%
viability, T/C [30]: 0.99%
viability, T/C [31]: 38.4%
viability, T/C [32]: 38.7%
viability, T/C [33]: 52.4%
viability, T/C [34]: 41.9%
viability, T/C [35]: 19.7%
viability, T/C [36]: 2.58%
